Data from patent US12522583B2, “Benzimidazole derivatives and aza-benzimidazole derivatives as Janus kinase 2 inhibitors and uses thereof” (Dana-Farber Cancer Institute, Inc., priority 2018, dated 2026).

Legend:
JAK2 = JAK2 (Homo sapiens (Human), UniProt O60674); test: JAK2 Z-Lyte biochemical assay
Experimental: Example 3. JAK2 Z-Lyte Biochemical Assay of the Compounds of the Present Disclosure
The JAK2 Z-Lyte biochemical assay was performed according to manufacturer's instructions (Life Technologies).

[1] = test system: cell lines or patient-derived xenografts from patients with CRLF2-rearranged B-ALL; details: cited from earlier work

Chain of JAK2 (O60674 whole entry): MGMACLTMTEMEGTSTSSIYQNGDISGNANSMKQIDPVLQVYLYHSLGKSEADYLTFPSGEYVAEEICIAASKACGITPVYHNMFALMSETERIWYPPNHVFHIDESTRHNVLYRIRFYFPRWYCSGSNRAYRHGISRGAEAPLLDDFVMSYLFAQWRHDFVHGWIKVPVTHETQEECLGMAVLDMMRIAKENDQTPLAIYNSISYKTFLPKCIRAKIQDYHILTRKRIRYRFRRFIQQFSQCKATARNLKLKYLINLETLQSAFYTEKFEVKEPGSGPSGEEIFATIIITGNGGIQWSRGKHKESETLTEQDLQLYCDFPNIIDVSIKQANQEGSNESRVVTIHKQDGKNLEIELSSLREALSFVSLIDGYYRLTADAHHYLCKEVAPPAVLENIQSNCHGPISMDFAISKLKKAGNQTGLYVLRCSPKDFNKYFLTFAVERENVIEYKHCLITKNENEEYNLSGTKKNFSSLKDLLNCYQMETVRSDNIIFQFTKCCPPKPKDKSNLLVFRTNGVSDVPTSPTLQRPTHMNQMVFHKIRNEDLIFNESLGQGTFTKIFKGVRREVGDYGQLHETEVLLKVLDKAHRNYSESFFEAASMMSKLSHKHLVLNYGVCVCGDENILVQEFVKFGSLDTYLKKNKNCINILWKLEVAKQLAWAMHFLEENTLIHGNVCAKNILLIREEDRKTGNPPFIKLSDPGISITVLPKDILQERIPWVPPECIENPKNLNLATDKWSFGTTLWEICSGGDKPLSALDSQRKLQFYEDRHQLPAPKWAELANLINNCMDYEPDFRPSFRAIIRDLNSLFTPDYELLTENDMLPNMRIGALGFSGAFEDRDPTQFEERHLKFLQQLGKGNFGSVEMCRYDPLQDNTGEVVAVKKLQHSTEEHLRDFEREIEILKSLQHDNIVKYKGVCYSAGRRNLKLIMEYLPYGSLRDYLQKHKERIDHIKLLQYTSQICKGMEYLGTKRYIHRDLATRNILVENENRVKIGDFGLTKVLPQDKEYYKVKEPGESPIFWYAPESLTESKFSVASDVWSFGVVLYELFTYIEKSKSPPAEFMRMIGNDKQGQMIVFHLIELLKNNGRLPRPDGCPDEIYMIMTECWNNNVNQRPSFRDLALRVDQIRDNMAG

SMILES | IC50 (JAK2) | IC50 [1]
CC(=O)Nc1cc(Oc2ccc3nc(Nc4ccc(F)cc4F)n(C)c3c2)ccn1 [Compound I-1, N-(4-(2-(2,4-difluorophenylamino)-1-methyl-1H-benzo[d]imidazol-6-yloxy)pyridin-2-yl)acetamide] | 3.08 µM | –
CC(=O)Nc1cc(Oc2ccc3nc(Nc4ccc(F)cc4F)[nH]c3c2C)ccn1 [Compound I-4, N-(4-(2-(2,4-difluorophenylamino)-4-methyl-1H-benzo[d]imidazol-5-yloxy)pyridin-2-yl)acetamide] | 0.449 µM | –
CC(=O)Nc1cc(Oc2ccc3c(c2)nc(Nc2ccc(F)cc2F)n3C)ccn1 [Compound I-8, N-(4-(2-(2,4-difluorophenylamino)-1-methyl-1H-benzo[d]imidazol-5-yloxy)pyridin-2-yl)acetamide] | 0.0925 µM | –
CC(=O)Nc1cc(Oc2ncc3[nH]c(Nc4ccc(F)cc4F)nc3n2)ccn1 [Compound I-10, N-(4-(8-(2,4-difluorophenylamino)-7H-purin-2-yloxy)pyridin-2-yl)acetamide] | > 10 µM | –
CC(=O)Nc1cc(Oc2ccc3nc(Nc4ccc(F)cc4F)nn3c2)ccn1 [Compound I-11, N-(4-(2-(2,4-difluorophenylamino)-[1,2,4]triazolo[1,5-a]pyridin-6-yloxy)pyridin-2-yl)acetamide] | > 10 µM | –
CC(=O)Nc1cc(Oc2ccc3nc(Nc4ccc(F)cc4F)n(C)c3n2)ccn1 [Compound I-12, N-(4-(2-(2,4-difluorophenylamino)-3-methyl-3H-imidazo[4,5-b]pyridin-5-yloxy)pyridin-2-yl)acetamide] | > 10 µM | –
COC(=O)c1cc(Oc2ccc3nc(Nc4ccc(F)cc4F)n(C)c3n2)ccn1 [Compound I-13, Methyl 4-((2-((2,4-difluorophenyl)amino)-3-methyl-3H-imidazo[4,5-b]pyridin-5-yl)oxy) picolinate] | > 10 µM | –
Cn1c(Nc2ccc(F)cc2F)nc2ccc(Oc3ccnc(C(=O)O)c3)nc21 [Compound I-14, 4-((2-((2,4-difluorophenyl)amino)-3-methyl-3H-imidazo[4,5-b]pyridin-5-yl)oxy)picolinic acid] | > 10 µM | –
Cn1c(Nc2ccc(F)cc2F)nc2ccc(Oc3ccc(O)nc3)cc21 [Compound I-23] | > 10 µM | –
N#CC[C@H](C1CCCC1)n1cc(-c2ncnc3[nH]ccc23)cn1 [Ruxolitinib] | – | > 20 µM

Now from value to compound, other results behind:

IC50 (JAK2) | SMILES | IC50 [1]
0.957 µM | CCN1CCN(Cc2cc(Nc3nc4ccc(Oc5ccnc(NC(C)=O)c5)cc4n3C)cc(C(F)(F)F)c2)CC1 [Compound I-3, N-(4-(2-(3-((4-ethylpiperazin-1-yl)methyl)-5-(trifluoromethyl)phenylamino)-1-methyl-1H-benzo[d]imidazol-6-yloxy)pyridin-2-yl)acetamide] | –
1.05 µM | CCN1CCN(Cc2ccc(Nc3nc4ccc(Oc5ccnc(NC(C)=O)c5)c(C)c4[nH]3)cc2C(F)(F)F)CC1 [Compound I-5, N-(4-(2-(4-((4-ethylpiperazin-1-yl)methyl)-3-(trifluoromethyl)phenylamino)-4-methyl-1H-benzo[d]imidazol-5-yloxy)pyridin-2-yl)acetamide] | –
8.53 µM | CCN1CCN(Cc2ccc(Nc3nc4cc(Oc5ccnc(NC(C)=O)c5)ccc4n3C)cc2C(F)(F)F)CC1 [Compound I-7, N-(4-(2-(4-((4-ethylpiperazin-1-yl)methyl)-3-(trifluoromethyl)phenylamino)-1-methyl-1H-benzo[d]imidazol-5-yloxy)pyridin-2-yl)acetamide] | –
2.14 µM | CCN1CCN(Cc2cc(Nc3nc4cc(Oc5ccnc(NC(C)=O)c5)ccc4n3C)cc(C(F)(F)F)c2)CC1 [Compound I-9, N-(4-(2-(3-((4-ethylpiperazin-1-yl)methyl)-5-(trifluoromethyl)phenylamino)-1-methyl-1H-benzo[d]imidazol-5-yloxy)pyridin-2-yl)acetamide] | –
1.34 µM | CCN1CCN(Cc2ccc(Nc3nc4ccc(Oc5ccnc(NC(C)=O)c5)nc4n3C)cc2C(F)(F)F)CC1 [Compound I-15, N-(4-((2-((4-((4-ethylpiperazin-1-yl)methyl)-3-(trifluoromethyl)phenyl)amino)-3-methyl-3H-imidazo[4,5-b]pyridin-5-yl)oxy)pyridin-2-yl)acetamide] | –
> 10 µM | CCN1CCN(Cc2ccc(Nc3nc4nc(Oc5ccnc(NC(C)=O)c5)ncc4[nH]3)cc2C(F)(F)F)CC1 [Compound I-16, N-(4-((8-((4-((4-ethylpiperazin-1-yl)methyl)-3-(trifluoromethyl)phenyl)amino)-7H-purin-2-yl)oxy)pyridin-2-yl)acetamide] | –
6 µM | CCN1CCN(Cc2ccc(Nc3nc4ccc(Oc5ccnc(NC(=O)C6CCOCC6)c5)cc4n3C)cc2C(F)(F)F)CC1 [Compound I-18, N-(4-(2-(4-((4-ethylpiperazin-1-yl)methyl)-3-(trifluoromethyl)phenylamino)-3-methyl-3H-benzo[d]imidazol-5-yloxy)pyridin-2-yl)-tetrahydro-2H-pyran-4-carboxamide] | –
8.03 µM | CCN1CCN(Cc2ccc(Nc3nc4ccc(Oc5ccnc(NC(=O)C6CCN(C)CC6)c5)cc4n3C)cc2C(F)(F)F)CC1 [Compound I-19, N-(4-(2-(4-((4-ethylpiperazin-1-yl)methyl)-3-(trifluoromethyl)phenylamino)-3-methyl-3H-benzo[d]imidazol-5-yloxy)pyridin-2-yl)-1-methylpiperidine-4-carboxamide] | –
1.95 µM | CCN1CCN(Cc2ccc(Nc3nc4ccc(Oc5ccnc(N)c5)cc4n3C)cc2C(F)(F)F)CC1 [Compound I-20, 6-(2-aminopyridin-4-yloxy)-N-(4-((4-ethylpiperazin-1-yl)methyl)-3-(trifluoromethyl)phenyl)-1-methyl-1H-benzo[d]imidazol-2-amine] | –
4.93 µM | CCN1CCN(Cc2ccc(Nc3nc4ccc(Oc5ccnc(NC(=O)CCN(C)C)c5)cc4n3C)cc2C(F)(F)F)CC1 [Compound I-21, 3-(dimethylamino)-N-(4-(2-(4-((4-ethylpiperazin-1-yl)methyl)-3-(trifluoromethyl)phenylamino)-3-methyl-3H-benzo[d]imidazol-5-yloxy)pyridin-2-yl)propanamide] | –
> 10 µM | CCN1CCN(Cc2ccc(Nc3nc4ccc(Oc5ccc(O)nc5)cc4n3C)cc2C(F)(F)F)CC1 [Compound I-22, 5-((2-((4-((4-ethylpiperazin-1-yl)methyl)-3-(trifluoromethyl)phenyl)amino)-1-methyl-1H-benzo[d]imidazol-6-yl)oxy)pyridin-2(1H)-one] | –
